Measured values as given in ChEMBL document CHEMBL1671830, “Discovery of PSI-353661, a Novel Purine Nucleotide Prodrug for the Treatment of HCV Infection” (ACS Med Chem Lett, 2011).

Tests used:
Assay type in all cases: ADME, organism-based
Settings in all cases: in vivo
[1] = system: Plasma; assay: Metabolic stability in rat plasma assessed as beta-D-2'-Deoxy-2'-R-fluoro-2'-beta-C-methylguanosine level at 60 uCi, po after 6 hrs
[2] = system: Plasma; assay: Metabolic stability in rat plasma assessed as (2S)-2-((((2R,3R,4R,5R)-5-(2-amino-6-methoxy-9H-purin-9-yl)-4-fluoro-3-hydroxy-4-methyltetrahydrofuran-2-yl)methoxy)(hydroxy)phosphorylamino)propanoic acid level at 60 uCi, po after 1 hr
[3] = system: Plasma; assay: Metabolic stability in rat plasma assessed as (2S)-2-((((2R,3R,4R,5R)-5-(2-amino-6-methoxy-9H-purin-9-yl)-4-fluoro-3-hydroxy-4-methyltetrahydrofuran-2-yl)methoxy)(hydroxy)phosphorylamino)propanoic acid level at 60 uCi, po after 6 hrs
[4] = system: Plasma; assay: Metabolic stability in rat plasma assessed as (2S)-isopropyl 2-((((2R,3R,4R,5R)-5-(2-amino-6-methoxy-9H-purin-9-yl)-4-fluoro-3-hydroxy-4-methyltetrahydrofuran-2-yl)methoxy)(phenoxy)phosphorylamino)propanoate level at 60 uCi, po after 1 hr
[5] = system: Plasma; assay: Metabolic stability in rat plasma assessed as (2S)-isopropyl 2-((((2R,3R,4R,5R)-5-(2-amino-6-methoxy-9H-purin-9-yl)-4-fluoro-3-hydroxy-4-methyltetrahydrofuran-2-yl)methoxy)(phenoxy)phosphorylamino)propanoate level at 60 uCi, po after 6 hrs
[6] = system: Plasma; assay: Metabolic stability in rat plasma assessed as PSI-353661 level at 60 uCi, po after 1 hr
[7] = system: Plasma; assay: Metabolic stability in rat plasma assessed as PSI-353661 level at 60 uCi, po after 6 hrs
[8] = system: Liver; assay: Metabolic stability in rat liver assessed as beta-D-2'-Deoxy-2'-R-fluoro-2'-beta-C-methylguanosine level at 60 uCi, po after 1 hr
[9] = system: Liver; assay: Metabolic stability in rat liver assessed as beta-D-2'-Deoxy-2'-R-fluoro-2'-beta-C-methylguanosine level at 60 uCi, po after 6 hrs
[10] = system: Liver; assay: Metabolic stability in rat liver assessed as (2S)-2-((((2R,3R,4R,5R)-5-(2-amino-6-methoxy-9H-purin-9-yl)-4-fluoro-3-hydroxy-4-methyltetrahydrofuran-2-yl)methoxy)(hydroxy)phosphorylamino)propanoic acid level at 60 uCi, po after 1 hr
[11] = system: Liver; assay: Metabolic stability in rat liver assessed as (2S)-2-((((2R,3R,4R,5R)-5-(2-amino-6-methoxy-9H-purin-9-yl)-4-fluoro-3-hydroxy-4-methyltetrahydrofuran-2-yl)methoxy)(hydroxy)phosphorylamino)propanoic acid level at 60 uCi, po after 6 hrs
[12] = system: Liver; assay: Metabolic stability in rat liver assessed as ((2R,3R,4R,5R)-5-(2-amino-6-oxo-1H-purin-9(6H)-yl)-4-fluoro-3-hydroxy-4-methyltetrahydrofuran-2-yl)methyl dihydrogen phosphate level at 60 uCi, po after 1 hr
[13] = system: Liver; assay: Metabolic stability in rat liver assessed as ((2R,3R,4R,5R)-5-(2-amino-6-oxo-1H-purin-9(6H)-yl)-4-fluoro-3-hydroxy-4-methyltetrahydrofuran-2-yl)methyl dihydrogen phosphate level at 60 uCi, po after 6 hrs
[14] = system: Liver; assay: Metabolic stability in rat liver assessed as ((2R,3R,4R,5R)-5-(2-amino-6-oxo-1H-purin-9(6H)-yl)-4-fluoro-3-hydroxy-4-methyltetrahydrofuran-2-yl)methyl trihydrogen diphosphate level at 60 uCi, po after 1 hr
[15] = system: Liver; assay: Metabolic stability in rat liver assessed as ((2R,3R,4R,5R)-5-(2-amino-6-oxo-1H-purin-9(6H)-yl)-4-fluoro-3-hydroxy-4-methyltetrahydrofuran-2-yl)methyl trihydrogen diphosphate level at 60 uCi, po after 6 hrs
[16] = system: Liver; assay: Metabolic stability in rat liver assessed as ((2R,3R,4R,5R)-5-(2-amino-6-oxo-1H-purin-9(6H)-yl)-4-fluoro-3-hydroxy-4-methyltetrahydrofuran-2-yl)methyl tetrahydrogen triphosphate level at 60 uCi, po after 1 hr
[17] = system: Liver; assay: Metabolic stability in rat liver assessed as ((2R,3R,4R,5R)-5-(2-amino-6-oxo-1H-purin-9(6H)-yl)-4-fluoro-3-hydroxy-4-methyltetrahydrofuran-2-yl)methyl tetrahydrogen triphosphate level at 60 uCi, po after 6 hrs
[18] = system: Plasma; assay: Metabolic stability in rat plasma assessed as beta-D-2'-Deoxy-2'-R-fluoro-2'-beta-C-methylguanosine level at 60 uCi, po after 1 hr

## [3H]c1nc2c(OC)nc(N)nc2n1[C@@H]1O[C@H](COP(=O)(O)N[C@@H](C)C(=O)OC(C)C)[C@@H](O)[C@@]1(C)F
[1]
  Stability: 3848 cpm
[2]
  Stability: 920 cpm
[3]
  Stability: 288 cpm
[4]
  Stability: 1160 cpm
[5]
  Stability: 272 cpm
[6]
  Stability: 1112 cpm
[7]
  Stability: 368 cpm
[8]
  Stability: 4224 cpm
[9]
  Stability: 11512 cpm
[10]
  Stability: 1648 cpm
[11]
  Stability: 572 cpm
[12]
  Stability: 1828 cpm
[13]
  Stability: 1920 cpm
[14]
  Stability: 988 cpm
[15]
  Stability: 1620 cpm
[16]
  Stability: 384 cpm
[17]
  Stability: 460 cpm
[18]
  Stability: 1376 cpm
